# Assays:
# [1] = Hepatic clearance in human microsomes at 0.5 uM; format: ADME, microsome; details: liver microsomes
# [2] = target: cGMP-inhibited 3',5'-cyclic phosphodiesterase 3A (Homo sapiens, UniProt Q14432); assay: Inhibition of PDE3A (679 to 1087 residues) (unknown origin) expressed in Escherichia coli BL21(DE3) using [3H]cAMP or [3H]cGMP as substrate after 15 mins by liquid scintillation counting method
# Cytochrome P450 1A2 = target: T1, Cytochrome P450 1A2 (Homo sapiens, UniProt P05177); assay: Inhibition of CYP1A2 in human microsomes in presence of NADPH; format: ADME
# T1 sequence (P05177 whole entry): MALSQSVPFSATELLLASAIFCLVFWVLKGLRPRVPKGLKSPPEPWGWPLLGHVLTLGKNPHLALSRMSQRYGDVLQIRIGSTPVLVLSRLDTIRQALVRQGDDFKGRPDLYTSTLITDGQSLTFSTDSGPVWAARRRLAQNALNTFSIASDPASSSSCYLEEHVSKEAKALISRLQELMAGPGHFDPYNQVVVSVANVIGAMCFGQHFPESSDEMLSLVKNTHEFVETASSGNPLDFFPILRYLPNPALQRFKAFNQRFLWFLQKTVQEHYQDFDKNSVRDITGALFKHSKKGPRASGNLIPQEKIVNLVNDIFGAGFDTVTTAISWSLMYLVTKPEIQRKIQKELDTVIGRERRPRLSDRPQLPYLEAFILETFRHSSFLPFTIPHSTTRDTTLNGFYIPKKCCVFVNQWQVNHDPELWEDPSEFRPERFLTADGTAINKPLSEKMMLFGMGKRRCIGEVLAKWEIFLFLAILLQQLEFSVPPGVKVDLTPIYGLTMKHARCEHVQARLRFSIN
# Rattus norvegicus = assay: Toxicity in Sprague-Dawley rat assessed as effect on body weight up to 300 mg/kg, po daily for 2 weeks; format: organism-based; details: in vivo, 336 h
# [3] = Half life in human microsomes at 0.5 uM; format: ADME, microsome; details: liver microsomes
# [4] = AUC (0 to t) in Sprague-Dawley rat at 5 mg/kg, po by LC-MS/MS analysis; format: ADME, organism-based; details: in vivo
# [5] = Apparent clearance in human liver microsomes at 0.5 uM; format: ADME, microsome; details: read-out: CLH(app)
# Mus musculus = assay: Acute toxicity in Kunming mouse assessed as effect on body weight at 1000 to 1500 mg/kg, po administered as single dose measured up to 2 weeks post dose; format: organism-based; details: in vivo, 336 h
# Liver [6] = assay: Intrinsic clearance in rat liver microsomes at 0.5 uM; format: ADME, microsome
# [7] = Oral bioavailability in Sprague-Dawley rat at 5 mg/kg by LC-MS/MS analysis; format: ADME, organism-based; details: in vivo
# [8] = Half life in rat liver microsomes at 0.5 uM; format: ADME, microsome
# [9] = Cmax in Sprague-Dawley rat at […], iv by LC-MS/MS analysis; format: ADME, organism-based; design: dose 2.5 mg/kg, route intravenous; details: in vivo
# [10] = target: High affinity cAMP-specific and IBMX-insensitive 3',5'-cyclic phosphodiesterase 8A (Homo sapiens, UniProt O60658); assay: Inhibition of PDE8A1 (480 to 820 residues) (unknown origin) using [3H]cGMP or [3H]cAMP as substrate after 15 mins by liquid scintillation counting method
# Chain of High affinity cAMP-specific and IBMX-insensitive 3',5'-cyclic phosphodiesterase 8A (O60658 whole entry, the tested form may be a part): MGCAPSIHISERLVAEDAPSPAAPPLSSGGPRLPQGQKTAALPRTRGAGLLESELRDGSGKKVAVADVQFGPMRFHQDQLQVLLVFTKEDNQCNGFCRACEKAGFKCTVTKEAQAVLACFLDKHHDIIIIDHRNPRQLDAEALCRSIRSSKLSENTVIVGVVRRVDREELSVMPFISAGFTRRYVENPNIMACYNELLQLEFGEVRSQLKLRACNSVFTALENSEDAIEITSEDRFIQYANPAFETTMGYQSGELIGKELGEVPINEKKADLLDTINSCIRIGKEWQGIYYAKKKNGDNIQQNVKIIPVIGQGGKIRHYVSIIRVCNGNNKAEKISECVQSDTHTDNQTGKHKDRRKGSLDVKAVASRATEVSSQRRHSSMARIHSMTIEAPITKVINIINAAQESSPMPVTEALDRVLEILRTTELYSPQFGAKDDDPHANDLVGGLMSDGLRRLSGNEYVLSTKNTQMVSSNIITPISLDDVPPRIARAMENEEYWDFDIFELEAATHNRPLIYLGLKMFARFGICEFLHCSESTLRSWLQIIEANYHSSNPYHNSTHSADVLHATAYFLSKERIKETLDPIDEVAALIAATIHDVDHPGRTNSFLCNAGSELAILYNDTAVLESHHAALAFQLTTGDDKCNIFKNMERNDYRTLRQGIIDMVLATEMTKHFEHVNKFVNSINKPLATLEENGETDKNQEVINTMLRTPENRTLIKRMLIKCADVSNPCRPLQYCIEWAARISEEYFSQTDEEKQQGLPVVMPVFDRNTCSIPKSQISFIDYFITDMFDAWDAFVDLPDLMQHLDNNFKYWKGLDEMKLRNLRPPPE
# Cytochrome P450 2D6 = Cytochrome P450 2D6 (Homo sapiens, UniProt P10635); assay: Inhibition of CYP2D6 in human microsomes in presence of NADPH; format: ADME
# Chain of Cytochrome P450 2D6 (P10635 whole entry): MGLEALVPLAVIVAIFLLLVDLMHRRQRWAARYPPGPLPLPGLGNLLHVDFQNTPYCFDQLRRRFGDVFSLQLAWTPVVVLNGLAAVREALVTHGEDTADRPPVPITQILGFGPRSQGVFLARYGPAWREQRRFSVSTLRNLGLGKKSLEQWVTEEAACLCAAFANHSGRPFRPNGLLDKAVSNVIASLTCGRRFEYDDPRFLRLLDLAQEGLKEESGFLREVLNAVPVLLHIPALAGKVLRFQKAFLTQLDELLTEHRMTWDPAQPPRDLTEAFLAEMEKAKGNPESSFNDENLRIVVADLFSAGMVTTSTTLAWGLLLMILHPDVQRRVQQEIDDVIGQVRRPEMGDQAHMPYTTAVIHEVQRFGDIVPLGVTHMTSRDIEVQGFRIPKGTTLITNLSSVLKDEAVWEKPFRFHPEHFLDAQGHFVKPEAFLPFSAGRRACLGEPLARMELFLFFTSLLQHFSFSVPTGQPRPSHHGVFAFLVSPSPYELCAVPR
# Cytochrome P450 2C19 = Cytochrome P450 2C19 (Homo sapiens, UniProt P33261); assay: Inhibition of CYP2C19 in human microsomes in presence of NADPH; format: ADME
# Chain of Cytochrome P450 2C19 (P33261 whole entry): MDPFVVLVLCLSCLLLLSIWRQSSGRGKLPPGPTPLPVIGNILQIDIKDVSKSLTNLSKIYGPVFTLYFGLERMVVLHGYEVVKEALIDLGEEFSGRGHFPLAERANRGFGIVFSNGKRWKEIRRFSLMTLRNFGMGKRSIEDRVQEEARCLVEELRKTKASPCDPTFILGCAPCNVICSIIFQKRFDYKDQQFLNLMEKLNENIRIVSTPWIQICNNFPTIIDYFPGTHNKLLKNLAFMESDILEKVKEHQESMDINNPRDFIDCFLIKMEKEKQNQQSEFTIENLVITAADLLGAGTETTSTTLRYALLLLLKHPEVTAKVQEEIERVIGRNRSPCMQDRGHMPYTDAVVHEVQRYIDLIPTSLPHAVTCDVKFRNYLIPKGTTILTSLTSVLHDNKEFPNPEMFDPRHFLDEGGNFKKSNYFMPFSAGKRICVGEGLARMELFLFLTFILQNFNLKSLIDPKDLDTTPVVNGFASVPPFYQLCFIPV
# Liver [11] = assay: Intrinsic clearance in human liver microsomes at 0.5 uM; format: ADME, microsome
# Liver [12] = assay: Drug metabolism in rat liver microsomes assessed as metabolic rate; format: ADME, microsome
# Chain of cGMP-inhibited 3',5'-cyclic phosphodiesterase 3A (Q14432 whole entry, the tested form may be a part): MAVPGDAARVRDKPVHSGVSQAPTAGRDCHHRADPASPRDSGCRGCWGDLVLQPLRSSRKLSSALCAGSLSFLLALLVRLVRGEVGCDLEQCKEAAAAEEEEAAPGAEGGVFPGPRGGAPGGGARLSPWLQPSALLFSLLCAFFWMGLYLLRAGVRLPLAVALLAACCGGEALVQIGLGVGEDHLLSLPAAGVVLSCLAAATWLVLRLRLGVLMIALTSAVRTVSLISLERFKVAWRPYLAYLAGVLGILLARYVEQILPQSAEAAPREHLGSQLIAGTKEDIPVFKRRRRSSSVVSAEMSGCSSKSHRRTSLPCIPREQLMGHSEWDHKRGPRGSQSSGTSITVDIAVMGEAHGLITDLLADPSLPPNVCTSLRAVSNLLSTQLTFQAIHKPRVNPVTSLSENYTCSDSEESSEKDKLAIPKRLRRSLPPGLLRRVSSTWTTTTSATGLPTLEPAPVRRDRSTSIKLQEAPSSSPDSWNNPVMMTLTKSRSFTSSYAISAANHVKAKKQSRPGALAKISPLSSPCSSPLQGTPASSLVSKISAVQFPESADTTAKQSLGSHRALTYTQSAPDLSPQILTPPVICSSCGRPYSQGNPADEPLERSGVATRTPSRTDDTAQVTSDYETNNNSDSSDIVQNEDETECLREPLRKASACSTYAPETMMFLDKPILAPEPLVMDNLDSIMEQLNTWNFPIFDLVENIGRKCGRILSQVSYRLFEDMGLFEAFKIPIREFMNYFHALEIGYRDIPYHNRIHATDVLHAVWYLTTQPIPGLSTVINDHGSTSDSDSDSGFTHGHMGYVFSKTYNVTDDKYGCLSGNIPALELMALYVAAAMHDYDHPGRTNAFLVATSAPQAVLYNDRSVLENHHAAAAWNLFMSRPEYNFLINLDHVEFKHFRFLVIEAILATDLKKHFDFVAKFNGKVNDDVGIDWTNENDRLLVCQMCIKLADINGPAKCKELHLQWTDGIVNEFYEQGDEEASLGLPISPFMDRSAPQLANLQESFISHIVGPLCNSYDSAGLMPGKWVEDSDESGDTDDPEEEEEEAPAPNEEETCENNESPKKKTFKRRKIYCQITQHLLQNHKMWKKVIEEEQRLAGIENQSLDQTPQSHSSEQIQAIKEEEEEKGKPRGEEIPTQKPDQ
smiles,measurement,setting,value
O=c1c2ccccc2oc2c(Cc3ccc4c(c3)OCO4)[nH]c(-c3nccs3)c12,CLhep predicted at 0.5 µM,[1],10.9 mL/min/kg
same,IC50,[2],> 10 µM
same,IC50,Cytochrome P450 1A2,7.6 µM
same,Activity,Rattus norvegicus,Non-Toxic
same,half-life at 0.5 µM,[3],56 min
same,AUC(0-t),[4],2000 ng·h/mL
same,CLint scaled at 0.5 µM,[5],23.9 mL/min/kg
same,Activity,Mus musculus,Non-Toxic
same,CLH,Liver [6],0.0561 mL/min/mg
same,bioavailability,[7],63.4%
same,half-life at 0.5 µM,[8],24.7 min
same,Cmax,[9],2360 ng/mL
same,IC50,[10],6.22 µM
same,IC50,Cytochrome P450 2D6,> 25 µM
same,IC50,Cytochrome P450 2C19,> 20 µM
same,CLH,Liver [11],0.0248 mL/min/mg
same,K,Liver [12],0.0281
